# Laboratory results as given in publication PMC2363476 (British Journal of Cancer, 2000).
# Structures can show the parent of a compound that is named as a salt. Where two headings read alike, the source gives them in different places.
# Experiments:
# [1] = Plasma pharmacokinetics of irinotecan and SN-38 (reversed-phase HPLC); conditions: for SN-38/irinotecan AUC ratio / SN-38 Cmax / AUC / Cmax: cycle 1; for SN-38 Cmax: observed Cmax; for AUC / Cmax: human, plasma; for AUC: intravenous, Irinotecan AUC; for Cmax: iv, Irinotecan Cmax, estimated at the end of i.v. infusion
# Procedure: Other radiological investi- gations were carried out if indicated. […] Pharmacokinetic analysis was performed using WinNonlin software. […] Patients were seen weekly while on treatment.
# [2] = 1995, cited from earlier work
# [3] = test system: patients with advanced GI tract adenocarcinoma
# Source text: The primary objectives of this study were to determine the maximum tolerated doses (MTD) of the two drugs given as short infusions every 3 weeks and to determine the toxic effects and DLT of the combination. Secondary objectives were to measure the pharmacokinetics of irinotecan, SN-38 and raltitrexed, to assess the anti-tumour effect of the combination and to recom- mend a safe dose for phase II evaluation. METHODS Definitions DLT was defined as any grade 3 or 4 non-haematological toxicity (except alopecia) following cycle 1; grade 4 neutropenia or grade 3-4 neutropenia associated with fever (> 38C) or sepsis; grade 4 thrombocytopenia or any grade of thrombocytopenia associated with haemorrhage. MTD was defined as the dose level at which 50% of patients experienced the same DLT. […] Exclusion criteria were: previous treatment with topoisomerase I inhibitor; chronic enteropathy; symptomatic cerebral metastasis or leptomeningeal carcinomatosis; unresolved bowel obstruction; pregnancy; previous malignant disease (except adequately treated carcinoma in situ of the cervix uteri or basal cell carcinoma of the skin). Pre-treatment evaluation Prior to entry, patients were evaluated with a physical examina- tion. An ECG, chest X-ray and CT scan of thorax abdomen and pelvis were carried out on all patients. Other radiological investi- gations were carried out if indicated. A full blood count, renal function tests, liver function tests and prothrombin time were also performed. […] A minimum of three patients were recruited to each dose level, and escalation to the next level was carried out when all three had been observed for a minimum of 2 weeks. The initial design was for the level below MTD to be expanded to six patients. […] Patients received six cycles of treatment subject to favourable response. Further cycles could be administered at the investigators' discre- tion if there was evidence of continuing clinical benefit. […] Pharmacokinetic analysis was performed using WinNonlin software. The calculation of kinetic parameters was performed using a 2- or 3-compartment open model for irinotecan, and a non-compartmental analysis for its metabolite SN-38 and raltitrexed. The following parameters were evaluated: maximum plasma concentration (Cmax ); area under the plasma concentration-time curve (AUC); total body clearance (Cl); volume of distribution at steady state (Vss ) and terminal half-life (t1/2 ). Evaluation and management of toxicity No prophylactic antidiarrhoeal treatment was given. […] Patients were seen weekly while on treatment. Toxicities were graded according to the NCI common toxicity criteria (NCI-CTC). […] Any patient experiencing concomitant vomiting was hospitalized to prevent dehydration. […] All patients with febrile neutropaenia were admitted to hospital and treated with intravenous antibiotics. […] In the case of myelosuppression lasting more than 5 weeks from the date of treatment, the patient was withrawn from the study.
# [4] = 1998, cited from earlier work
# [5] = Plasma pharmacokinetics of raltitrexed (radioimmunoassay); format: in vivo; conditions: human, intravenous
# Procedure: […]. […] […]. […] 261 courses were administered. […] Two others had lethargy caused by disease progression. There was no first-cycle neutropenia. […] […]; 6/30 patients (20%) had objective responses. This combination is active with manageable toxicity. […] Other radiological investi- gations were carried out if indicated. […] […]. […] Pharmacokinetic analysis was performed using WinNonlin software. […] […]. Patients were seen weekly while on treatment. […] […]. […] All the other patients were evaluable for toxicity. […] Duration of neutropaenia ranged from 3-8 days. […] Grade 3 lethargy was therefore defined as a DLT. […] […]. […] They therefore continued treatment as scheduled. […] Dose delays were seen after 24/143 cycles (17%). […] Six patients required dose reduction.
# [6] = dose level I (irinotecan 175, raltitrexed 2.6 mg m-2), n=3
# [7] = dose level II (irinotecan 200, raltitrexed 2.6 mg m-2), n=3
# [8] = dose level III (irinotecan 250, raltitrexed 2.6 mg m-2), n=3
# [9] = dose level IV (irinotecan 300, raltitrexed 2.6 mg m-2), n=3
# [10] = dose level V (irinotecan 350, raltitrexed 2.6 mg m-2), n=3
# [11] = dose level VI (irinotecan 350, raltitrexed 3.0 mg m-2), n=6
# [12] = dose level VII (irinotecan 400, raltitrexed 2.6 mg m-2), n=5
# [13] = 3.0 mg m-2, 14C labelled raltitrexed, single agent, ref Beale et al
# [14] = dose level I (irinotecan 175, raltitrexed 2.6 mg m-2), cycle 1, n=3
# [15] = dose level II (irinotecan 200, raltitrexed 2.6 mg m-2), cycle 1, n=3
# [16] = dose level III (irinotecan 250, raltitrexed 2.6 mg m-2), cycle 1, n=3
# [17] = dose level IV (irinotecan 300, raltitrexed 2.6 mg m-2), cycle 1, n=3
# [18] = dose level V (irinotecan 350, raltitrexed 2.6 mg m-2), cycle 1, n=3
# [19] = dose level VI (irinotecan 350, raltitrexed 3.0 mg m-2), cycle 1, n=6
# [20] = dose level VII (irinotecan 400, raltitrexed 2.6 mg m-2), cycle 1, n=6
structure (smiles),measurement,setting,value
CCc1c2c(nc3ccc(O)cc13)-c1cc3c(c(=O)n1C2)COC(=O)[C@]3(O)CC [SN-38],SN-38 time of maximal concentrations following the end of i.v. infusion,[1]; all dose levels,≤ 60 min
same,SN-38/irinotecan AUC ratio,[1]; [6],2.1%
same,SN-38 Cmax,[1]; [6],48000 µg/mL
same,SN-38/irinotecan AUC ratio,[1]; [7],3.2%
same,SN-38 Cmax,[1]; [7],74000 µg/mL
same,SN-38/irinotecan AUC ratio,[1]; [8],2.3%
same,SN-38 Cmax,[1]; [8],60000 µg/mL
same,SN-38/irinotecan AUC ratio,[1]; [9],2.1%
same,SN-38 Cmax,[1]; [9],71000 µg/mL
same,SN-38/irinotecan AUC ratio,[1]; [10],2.9%
same,SN-38 Cmax,[1]; [10],57000 µg/mL
same,SN-38/irinotecan AUC ratio,[1]; [11],2.1%
same,SN-38 Cmax,[1]; [11],100000 µg/mL
same,SN-38/irinotecan AUC ratio,[1]; [12],2.7%
same,SN-38 Cmax,[1]; [12],117000 µg/mL
same,"SN-38 apparent terminal half-life, mean value",[1]; over the administered dose range,0.462 days
same,"SN-38/irinotecan AUC ratio, overall mean value",[1]; over the tested dose range,2.4%
same,SN-38 t1/2,"[2]; 168 phase I cancer patients treated with irinotecan alone, ref Chabot et al",0.442 days
same,"SN-38/irinotecan AUC ratio, overall mean value","[2]; irinotecan monotherapy, ref Abigerges et al",3.1%
"CCc1c2c(nc3ccc(OC(=O)N4CCC(N5CCCCC5)CC4)cc13)-c1cc3c(c(=O)n1C2)COC(=O)[C@]3(O)CC [irinotecan, Irinotecan hydrochloride]",AUC,[1]; [6],13100 ng·h/mL
same,AUC,[1]; [7],16000 ng·h/mL
same,AUC,[1]; [8],14600 ng·h/mL
same,AUC,[1]; [9],22600 ng·h/mL
same,AUC,[1]; [10],26600 ng·h/mL
same,AUC,[1]; [11],29000 ng·h/mL
same,AUC,[1]; [12],27000 ng·h/mL
same,Cmax,[1]; [6],3.53 µg/mL
same,Cmax,[1]; [7],4.7 µg/mL
same,Cmax,[1]; [8],5.92 µg/mL
same,Cmax,[1]; [9],5.98 µg/mL
same,Cmax,[1]; [10],4.89 µg/mL
same,Cmax,[1]; [11],5.43 µg/mL
same,Cmax,[1]; [12],5.41 µg/mL
same,"MTD, irinotecan dose","[3]; with raltitrexed 2.6 mg m-2, 3-weekly (level VII)",400 mg m-2
same,"recommended dose for phase II evaluation, irinotecan",[3]; with raltitrexed 3.0 mg m-2 every 3 weeks (level VI),350 mg m-2
Cc1nc2ccc(CN(C)c3ccc(C(=O)N[C@@H](CCC(=O)O)C(=O)O)s3)cc2c(=O)[nH]1 [raltitrexed],raltitrexed AUC,[4]; [13],2342 ng/h/mL
same,raltitrexed Cmax,[4]; [13],0.737 µg/mL
same,raltitrexed clearance,[4]; [13],2.48 L/h
same,change of raltitrexed AUC in renal impairment,"[4]; patients with measured creatinine clearance less than 65 ml min-1, ref Judson et al",approximately doubled
same,AUC,[5]; [14],1710 ng·h/mL
same,Cmax,[5]; [14],0.561 µg/mL
same,clearance,"[5]; dose level I (irinotecan 175, raltitrexed 2.6 mg m-2), cycle 1, n=3, read-out: Raltitrexed Cl (converted)",50.2 mL/min
same,Vd,"[5]; dose level I (irinotecan 175, raltitrexed 2.6 mg m-2), cycle 1, n=3, read-out: Raltitrexed Vss",40.7 L
same,half-life,"[5]; dose level I (irinotecan 175, raltitrexed 2.6 mg m-2), cycle 1, n=3, read-out: Raltitrexed t1/2 terminal (converted)",9.25 days
same,AUC,[5]; [15],1440 ng·h/mL
same,Cmax,[5]; [15],0.42 µg/mL
same,clearance,"[5]; dose level II (irinotecan 200, raltitrexed 2.6 mg m-2), cycle 1, n=3, read-out: Raltitrexed Cl (converted)",78.3 mL/min
same,Vd,"[5]; dose level II (irinotecan 200, raltitrexed 2.6 mg m-2), cycle 1, n=3, read-out: Raltitrexed Vss",27.3 L
same,half-life,"[5]; dose level II (irinotecan 200, raltitrexed 2.6 mg m-2), cycle 1, n=3, read-out: Raltitrexed t1/2 terminal (converted)",7.92 days
same,AUC,[5]; [16],1460 ng·h/mL
same,Cmax,[5]; [16],0.291 µg/mL
same,clearance,"[5]; dose level III (irinotecan 250, raltitrexed 2.6 mg m-2), cycle 1, n=3, read-out: Raltitrexed Cl (converted)",56 mL/min
same,Vd,"[5]; dose level III (irinotecan 250, raltitrexed 2.6 mg m-2), cycle 1, n=3, read-out: Raltitrexed Vss",60.2 L
same,half-life,"[5]; dose level III (irinotecan 250, raltitrexed 2.6 mg m-2), cycle 1, n=3, read-out: Raltitrexed t1/2 terminal (converted)",14.4 days
same,AUC,[5]; [17],1810 ng·h/mL
same,Cmax,[5]; [17],0.676 µg/mL
same,clearance,"[5]; dose level IV (irinotecan 300, raltitrexed 2.6 mg m-2), cycle 1, n=3, read-out: Raltitrexed Cl (converted)",47.2 mL/min
same,Vd,"[5]; dose level IV (irinotecan 300, raltitrexed 2.6 mg m-2), cycle 1, n=3, read-out: Raltitrexed Vss",32.3 L
same,half-life,"[5]; dose level IV (irinotecan 300, raltitrexed 2.6 mg m-2), cycle 1, n=3, read-out: Raltitrexed t1/2 terminal (converted)",14.5 days
same,AUC,[5]; [18],2520 ng·h/mL
same,Cmax,[5]; [18],0.736 µg/mL
same,clearance,"[5]; dose level V (irinotecan 350, raltitrexed 2.6 mg m-2), cycle 1, n=3, read-out: Raltitrexed Cl (converted)",41.7 mL/min
same,Vd,"[5]; dose level V (irinotecan 350, raltitrexed 2.6 mg m-2), cycle 1, n=3, read-out: Raltitrexed Vss",30.2 L
same,half-life,"[5]; dose level V (irinotecan 350, raltitrexed 2.6 mg m-2), cycle 1, n=3, read-out: Raltitrexed t1/2 terminal (converted)",16.8 days
same,AUC,[5]; [19],2480 ng·h/mL
same,Cmax,[5]; [19],0.772 µg/mL
same,clearance,"[5]; dose level VI (irinotecan 350, raltitrexed 3.0 mg m-2), cycle 1, n=6, read-out: Raltitrexed Cl (converted)",40.2 mL/min
same,Vd,"[5]; dose level VI (irinotecan 350, raltitrexed 3.0 mg m-2), cycle 1, n=6, read-out: Raltitrexed Vss",25.8 L
same,half-life,"[5]; dose level VI (irinotecan 350, raltitrexed 3.0 mg m-2), cycle 1, n=6, read-out: Raltitrexed t1/2 terminal (converted)",12.3 days
same,AUC,[5]; [20],1500 ng·h/mL
same,Cmax,[5]; [20],0.574 µg/mL
same,clearance,"[5]; dose level VII (irinotecan 400, raltitrexed 2.6 mg m-2), cycle 1, n=6, read-out: Raltitrexed Cl (converted)",55.7 mL/min
same,Vd,"[5]; dose level VII (irinotecan 400, raltitrexed 2.6 mg m-2), cycle 1, n=6, read-out: Raltitrexed Vss",43.8 L
same,half-life,"[5]; dose level VII (irinotecan 400, raltitrexed 2.6 mg m-2), cycle 1, n=6, read-out: Raltitrexed t1/2 terminal (converted)",10.9 days
same,clearance,"[5]; over all dose ranges, 27 patients, read-out: raltitrexed Cl (converted)",51.7 mL/min
same,half-life,"[5]; over all dose ranges, 27 patients, read-out: raltitrexed t1/2 (converted)",12.1 days
same,patients with lower limb cellulitis secondary to raltitrexed,[3]; combination treatment,One
same,"recommended dose for phase II evaluation, raltitrexed",[3]; with irinotecan 350 mg m-2 every 3 weeks (level VI),3.0 mg m-2
same,"MTD, raltitrexed dose","[3]; with irinotecan 400 mg m-2, 3-weekly (level VII)",2.6 mg m-2
